Data published in publication PMC11683478, “Bioprospecting of culturable marine biofilm bacteria for novel antimicrobial peptides” (iMeta, 2024).

Columns and labels:
Assay in all cases: Antibacterial screen at 200 μg/mL (cell density vs control)
Type in all cases: cell-based
Conditions in all cases: peptide 200 μg/mL, CAMHB, 5 × 10^5 CFU/mL, 37°C, 12 h, OD600; control (no AMP) = 1; three biological replicates
[1] = tested on: Acinetobacter baumannii ATCC 19606
Procedure: (§1) Eight bacterial strains were utilized in the antibacterial experiment. S. aureus ATCC 12600, B. subtilis ATCC 23857, E. coli ATCC 11775, and A. baumannii ATCC 19606 were purchased from Shanghai Beinuo Biology. M. luteus ATCC 4698 and S. bongori ATCC43975 were purchased from Shanghai Beisi Biotechnology. V. owensii ems001 and V. alginolyticus xv22 from the intestines of diseased shrimps were isolated in our laboratory. All strains were cultured in the cation‐adjusted Mueller‐Hinton broth (CAMHB) at 37°C to the logarithmic growth phase (OD600 = 0.5). Then, bacteria were gradient‐diluted using fresh CAMHB to a bacterial density of 5 × 10^5 CFU/mL. Antibacterial experiments were performed in a 96‐well plate with 200 μg/mL final peptide concentration. Four experimental groups were set up, including a blank control (200 μL CAMHB), a negative control (180 μL CAMHB plus 20 μL peptide), a positive control (180 μL bacterial culture plus 20 μL ultrapure water), and an experimental group (180 μL bacterial culture plus 20 μL peptide). Three biological replicates were conducted for each group, and OD600 values were measured after incubation at 37°C for 12 h. Every observed value was removed from the blank control group value. The value of the experimental group was then subtracted from the value of the negative control group therefore eradicating the effect of the peptide on the OD measurement. Student's t‐test allowed the estimation of a notable variation between the experimental and positive groups using a p‐value of 0.05 as the limit. […] The MIC of a peptide against a bacterium was determined as the minimum peptide concentration at which there was no visible bacterial growth.

[2] = tested on: Bacillus subtilis ATCC 23857
Procedure: as §1

[3] = tested on: Escherichia coli ATCC 11775
Procedure: as §1

[4] = tested on: Micrococcus luteus ATCC 4698
Procedure: as §1

[5] = tested on: Salmonella bongori ATCC 43975
Procedure: as §1

[6] = tested on: Staphylococcus aureus ATCC 12600
Procedure: as §1

[7] = tested on: Vibrio alginolyticus xv22
Procedure: as §1

Vibrio owensii ems001 = tested on: Vibrio owensii ems001
Procedure: as §1

MLRRIGRMWRKLHPHGQ [Cand-10, chemically synthesized candidate AMP predicted from marine biofilm bacteria]
cell density relative to control, A. baumannii ATCC 19606 [1]: 0.009
cell density relative to control, B. subtilis ATCC 23857 [2]: 0.032
cell density relative to control, E. coli ATCC 11775 [3]: 0.001
cell density relative to control, M. luteus ATCC 4698 [4]: 0.001
cell density relative to control, S. bongori ATCC 43975 [5]: 0.009
cell density relative to control, S. aureus ATCC 12600 [6]: 0.007
cell density relative to control, V. alginolyticus xv22 [7]: 0.001
cell density relative to control, V. owensii ems001 (Vibrio owensii ems001): 0.041

MLTTIAKSTKKCKPKSCCACSLYRC [Cand-216, chemically synthesized candidate AMP predicted from marine biofilm bacteria]
cell density relative to control, A. baumannii ATCC 19606 [1]: 1
cell density relative to control, B. subtilis ATCC 23857 [2]: 0.845
cell density relative to control, E. coli ATCC 11775 [3]: 0.832
cell density relative to control, M. luteus ATCC 4698 [4]: 0.978
cell density relative to control, S. bongori ATCC 43975 [5]: 0.556
cell density relative to control, S. aureus ATCC 12600 [6]: 0.86
cell density relative to control, V. alginolyticus xv22 [7]: 0
cell density relative to control, V. owensii ems001 (Vibrio owensii ems001): 0.018

MPASRRCRPCCRLSGC [Cand-7, chemically synthesized candidate AMP predicted from marine biofilm bacteria]
cell density relative to control, A. baumannii ATCC 19606 [1]: 1
cell density relative to control, B. subtilis ATCC 23857 [2]: 0.065
cell density relative to control, E. coli ATCC 11775 [3]: 0.989
cell density relative to control, M. luteus ATCC 4698 [4]: 1
cell density relative to control, S. bongori ATCC 43975 [5]: 1
cell density relative to control, S. aureus ATCC 12600 [6]: 0.01
cell density relative to control, V. alginolyticus xv22 [7]: 0.016
cell density relative to control, V. owensii ems001 (Vibrio owensii ems001): 0.114

MPKRPWRACSSIG [Cand-212, chemically synthesized candidate AMP predicted from marine biofilm bacteria]
cell density relative to control, A. baumannii ATCC 19606 [1]: 0.835
cell density relative to control, B. subtilis ATCC 23857 [2]: 1
cell density relative to control, E. coli ATCC 11775 [3]: 1
cell density relative to control, M. luteus ATCC 4698 [4]: 1
cell density relative to control, S. bongori ATCC 43975 [5]: 0.839
cell density relative to control, S. aureus ATCC 12600 [6]: 0.896
cell density relative to control, V. alginolyticus xv22 [7]: 1
cell density relative to control, V. owensii ems001 (Vibrio owensii ems001): 1

MPKVKTKVCHRR [Cand-26, chemically synthesized candidate AMP predicted from marine biofilm bacteria]
cell density relative to control, A. baumannii ATCC 19606 [1]: 0.88
cell density relative to control, B. subtilis ATCC 23857 [2]: 0.676
cell density relative to control, E. coli ATCC 11775 [3]: 1
cell density relative to control, M. luteus ATCC 4698 [4]: 1
cell density relative to control, S. bongori ATCC 43975 [5]: 0.862
cell density relative to control, S. aureus ATCC 12600 [6]: 0.897
cell density relative to control, V. alginolyticus xv22 [7]: 0
cell density relative to control, V. owensii ems001 (Vibrio owensii ems001): 0.917

MQPILKKAAPKHVGYFYKCYL [Cand-119, chemically synthesized candidate AMP predicted from marine biofilm bacteria]
cell density relative to control, A. baumannii ATCC 19606 [1]: 0.908
cell density relative to control, B. subtilis ATCC 23857 [2]: 0.838
cell density relative to control, E. coli ATCC 11775 [3]: 0.618
cell density relative to control, M. luteus ATCC 4698 [4]: 1
cell density relative to control, S. bongori ATCC 43975 [5]: 0.699
cell density relative to control, S. aureus ATCC 12600 [6]: 0
cell density relative to control, V. alginolyticus xv22 [7]: 0.73
cell density relative to control, V. owensii ems001 (Vibrio owensii ems001): 0.046

MRHNMCRIGGRL [Cand-203, chemically synthesized candidate AMP predicted from marine biofilm bacteria]
cell density relative to control, A. baumannii ATCC 19606 [1]: 1
cell density relative to control, B. subtilis ATCC 23857 [2]: 1
cell density relative to control, E. coli ATCC 11775 [3]: 1
cell density relative to control, M. luteus ATCC 4698 [4]: 0.966
cell density relative to control, S. bongori ATCC 43975 [5]: 0.825
cell density relative to control, S. aureus ATCC 12600 [6]: 1
cell density relative to control, V. alginolyticus xv22 [7]: 0.004
cell density relative to control, V. owensii ems001 (Vibrio owensii ems001): 1

MRKGCKLIPCICDVNCRRRTG [Cand-8, chemically synthesized candidate AMP predicted from marine biofilm bacteria]
cell density relative to control, A. baumannii ATCC 19606 [1]: 0.201
cell density relative to control, B. subtilis ATCC 23857 [2]: 0.257
cell density relative to control, E. coli ATCC 11775 [3]: 0
cell density relative to control, M. luteus ATCC 4698 [4]: 0
cell density relative to control, S. bongori ATCC 43975 [5]: 0
cell density relative to control, S. aureus ATCC 12600 [6]: 0.364
cell density relative to control, V. alginolyticus xv22 [7]: 0.286
cell density relative to control, V. owensii ems001 (Vibrio owensii ems001): 0.653

MRPCMCRIGGGH [Cand-13, chemically synthesized candidate AMP predicted from marine biofilm bacteria]
cell density relative to control, A. baumannii ATCC 19606 [1]: 0.816
cell density relative to control, B. subtilis ATCC 23857 [2]: 1
cell density relative to control, E. coli ATCC 11775 [3]: 1
cell density relative to control, M. luteus ATCC 4698 [4]: 1
cell density relative to control, S. bongori ATCC 43975 [5]: 0.926
cell density relative to control, S. aureus ATCC 12600 [6]: 0.795
cell density relative to control, V. alginolyticus xv22 [7]: 0.942
cell density relative to control, V. owensii ems001 (Vibrio owensii ems001): 1

MRPCMCRIGGRL [Cand-19, chemically synthesized candidate AMP predicted from marine biofilm bacteria]
cell density relative to control, A. baumannii ATCC 19606 [1]: 1
cell density relative to control, B. subtilis ATCC 23857 [2]: 1
cell density relative to control, E. coli ATCC 11775 [3]: 1
cell density relative to control, M. luteus ATCC 4698 [4]: 1
cell density relative to control, S. bongori ATCC 43975 [5]: 0.929
cell density relative to control, S. aureus ATCC 12600 [6]: 1
cell density relative to control, V. alginolyticus xv22 [7]: 1
cell density relative to control, V. owensii ems001 (Vibrio owensii ems001): 1

MRPGMCRIGGRL [Cand-22, chemically synthesized candidate AMP predicted from marine biofilm bacteria]
cell density relative to control, A. baumannii ATCC 19606 [1]: 1
cell density relative to control, B. subtilis ATCC 23857 [2]: 1
cell density relative to control, E. coli ATCC 11775 [3]: 1
cell density relative to control, M. luteus ATCC 4698 [4]: 1
cell density relative to control, S. bongori ATCC 43975 [5]: 0.876
cell density relative to control, S. aureus ATCC 12600 [6]: 0.777
cell density relative to control, V. alginolyticus xv22 [7]: 0.862
cell density relative to control, V. owensii ems001 (Vibrio owensii ems001): 1

MRPRLRKRLLR [Cand-187, chemically synthesized candidate AMP predicted from marine biofilm bacteria]
cell density relative to control, A. baumannii ATCC 19606 [1]: 0.766
cell density relative to control, B. subtilis ATCC 23857 [2]: 0.002
cell density relative to control, E. coli ATCC 11775 [3]: 0.674
cell density relative to control, M. luteus ATCC 4698 [4]: 0.703
cell density relative to control, S. bongori ATCC 43975 [5]: 0.256
cell density relative to control, S. aureus ATCC 12600 [6]: 0.68
cell density relative to control, V. alginolyticus xv22 [7]: 0.84
cell density relative to control, V. owensii ems001 (Vibrio owensii ems001): 1

MRPSMCRIGGRL [Cand-38, chemically synthesized candidate AMP predicted from marine biofilm bacteria]
cell density relative to control, A. baumannii ATCC 19606 [1]: 0.836
cell density relative to control, B. subtilis ATCC 23857 [2]: 0.805
cell density relative to control, E. coli ATCC 11775 [3]: 0.861
cell density relative to control, M. luteus ATCC 4698 [4]: 1
cell density relative to control, S. bongori ATCC 43975 [5]: 1
cell density relative to control, S. aureus ATCC 12600 [6]: 0.771
cell density relative to control, V. alginolyticus xv22 [7]: 1
cell density relative to control, V. owensii ems001 (Vibrio owensii ems001): 1

MRQGMCRIGGRL [Cand-55, chemically synthesized candidate AMP predicted from marine biofilm bacteria]
cell density relative to control, A. baumannii ATCC 19606 [1]: 0.845
cell density relative to control, B. subtilis ATCC 23857 [2]: 0.908
cell density relative to control, E. coli ATCC 11775 [3]: 0.915
cell density relative to control, M. luteus ATCC 4698 [4]: 1
cell density relative to control, S. bongori ATCC 43975 [5]: 1
cell density relative to control, S. aureus ATCC 12600 [6]: 0.793
cell density relative to control, V. alginolyticus xv22 [7]: 0
cell density relative to control, V. owensii ems001 (Vibrio owensii ems001): 1

MRRFCCCRCSCCCWPS [Cand-25, chemically synthesized candidate AMP predicted from marine biofilm bacteria]
cell density relative to control, A. baumannii ATCC 19606 [1]: 1
cell density relative to control, B. subtilis ATCC 23857 [2]: 1
cell density relative to control, E. coli ATCC 11775 [3]: 0.835
cell density relative to control, M. luteus ATCC 4698 [4]: 1
cell density relative to control, S. bongori ATCC 43975 [5]: 0.847
cell density relative to control, S. aureus ATCC 12600 [6]: 0.422
cell density relative to control, V. alginolyticus xv22 [7]: 1
cell density relative to control, V. owensii ems001 (Vibrio owensii ems001): 0.067

MRVGMCRIGGRL [Cand-79, chemically synthesized candidate AMP predicted from marine biofilm bacteria]
cell density relative to control, A. baumannii ATCC 19606 [1]: 0.975
cell density relative to control, B. subtilis ATCC 23857 [2]: 0.837
cell density relative to control, E. coli ATCC 11775 [3]: 0.73
cell density relative to control, M. luteus ATCC 4698 [4]: 1
cell density relative to control, S. bongori ATCC 43975 [5]: 0.975
cell density relative to control, S. aureus ATCC 12600 [6]: 0.728
cell density relative to control, V. alginolyticus xv22 [7]: 0.8
cell density relative to control, V. owensii ems001 (Vibrio owensii ems001): 1
